Laboratory results as given in ChEMBL document CHEMBL1156861, “Synthesis and structure-activity relationship of substitutions at the C-1 position of Delta9-tetrahydrocannabinol” (Bioorg Med Chem Lett, 2010).

Assays:
[1] = molecular target: Cannabinoid receptor 1 (Homo sapiens, UniProt P21554); assay: Displacement of [3H]CP-55940 from CB1 receptor
[2] = molecular target: Cannabinoid receptor 2 (Homo sapiens, UniProt P34972); assay: Displacement of [3H]CP-55940 from CB2 receptor
[3] = Selectivity ratio of Ki for CB1 receptor to Ki for CB2 receptor

Chain of Cannabinoid receptor 1 (P21554 whole entry): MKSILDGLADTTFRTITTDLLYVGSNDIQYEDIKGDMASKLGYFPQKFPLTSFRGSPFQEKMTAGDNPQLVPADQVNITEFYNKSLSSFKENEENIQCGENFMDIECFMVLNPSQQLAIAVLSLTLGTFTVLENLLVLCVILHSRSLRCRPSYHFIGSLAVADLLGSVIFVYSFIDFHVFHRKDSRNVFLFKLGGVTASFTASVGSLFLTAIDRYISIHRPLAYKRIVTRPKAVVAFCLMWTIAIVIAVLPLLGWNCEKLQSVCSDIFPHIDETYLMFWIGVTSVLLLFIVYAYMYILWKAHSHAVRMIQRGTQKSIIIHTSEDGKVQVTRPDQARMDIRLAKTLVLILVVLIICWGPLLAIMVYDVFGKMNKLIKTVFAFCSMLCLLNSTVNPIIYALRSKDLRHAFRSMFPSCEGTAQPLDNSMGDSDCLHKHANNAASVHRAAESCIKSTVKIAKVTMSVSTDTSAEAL
Chain of Cannabinoid receptor 2 (P34972 whole entry): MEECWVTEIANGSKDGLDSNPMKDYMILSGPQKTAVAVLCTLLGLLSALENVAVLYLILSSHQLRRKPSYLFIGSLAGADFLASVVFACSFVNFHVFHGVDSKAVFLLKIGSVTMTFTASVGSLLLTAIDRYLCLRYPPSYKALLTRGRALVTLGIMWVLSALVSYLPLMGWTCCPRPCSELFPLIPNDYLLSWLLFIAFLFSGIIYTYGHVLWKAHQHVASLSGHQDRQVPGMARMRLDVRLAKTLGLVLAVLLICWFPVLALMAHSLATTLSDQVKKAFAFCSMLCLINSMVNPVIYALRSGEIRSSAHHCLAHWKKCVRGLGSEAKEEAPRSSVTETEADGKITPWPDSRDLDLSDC

Row | SMILES | Ki [1] | Ki [2] | Ratio Ki [3]
1 | CCCCCc1cc(NC(=O)NC)c2c(c1)OC(C)(C)[C@@H]1CCC(C)=C[C@@H]21 | > 3000 nM | 2050 nM | –
2 | CCCCCc1cc(NC(=O)OC)c2c(c1)OC(C)(C)[C@@H]1CCC(C)=C[C@@H]21 | > 3000 nM | 1400 nM | –
3 | CCCCCc1cc(NC(=O)CN(C)C)c2c(c1)OC(C)(C)[C@@H]1CCC(C)=C[C@@H]21 | > 3000 nM | > 3000 nM | –
4 | CCCCCc1cc2c(c(C(=O)NC(CO)CO)c1)[C@@H]1C=C(C)CC[C@H]1C(C)(C)O2 | > 3000 nM | 2000 nM | –
5 | CCCCCc1cc2c(c([S+](C)[O-])c1)[C@@H]1C=C(C)CC[C@H]1C(C)(C)O2 (single isomer, unassigned; diastereomer A) | > 3000 nM | 1930 nM | –
6 | CCCCCc1cc2c(c(N(C)C)c1)[C@@H]1C=C(C)CC[C@H]1C(C)(C)O2 | > 3000 nM | > 3000 nM | –
7 | CCCCCc1cc(NC(C)=O)c2c(c1)OC(C)(C)[C@@H]1CCC(C)=C[C@@H]21 | > 3000 nM | 1400 nM | –
8 | CCCCCc1cc2c(c(C(=O)O)c1)[C@@H]1C=C(C)CC[C@H]1C(C)(C)O2 | > 3000 nM | > 3000 nM | –
9 | CCCCCc1cc(NS(C)(=O)=O)c2c(c1)OC(C)(C)[C@@H]1CCC(C)=C[C@@H]21 | > 3000 nM | 1720 nM | –
10 | CCCCCCC(C)(C)c1cc(O)c2c(c1)OC(C)(C)[C@@H]1CCC(C)=C[C@@H]21 | 0.24 nM | 0.2 nM | 1
11 | CCCCCCC(C)(C)c1cc(NC(=O)c2ccncc2)c2c(c1)OC(C)(C)[C@@H]1CCC(C)=C[C@@H]21 | > 3000 nM | 1090 nM | > 3
12 | CCCCCCC(C)(C)c1cc(C#N)c2c(c1)OC(C)(C)[C@@H]1CCC(C)=C[C@@H]21 | 67.8 nM | 5.3 nM | 13
13 | CCCCCc1cc2c(c(C(N)=O)c1)[C@@H]1C=C(C)CC[C@H]1C(C)(C)O2 | > 3000 nM | 2190 nM | –
14 | CCCCCc1cc2c(c(C(=O)NCC(N)=O)c1)[C@@H]1C=C(C)CC[C@H]1C(C)(C)O2 | > 3000 nM | > 3000 nM | –
15 | CCCCCCC(C)(C)c1cc(N)c2c(c1)OC(C)(C)[C@@H]1CCC(C)=C[C@@H]21 | 11.7 nM | 2.9 nM | 4
16 | CCCCCc1cc(CN)c2c(c1)OC(C)(C)[C@@H]1CCC(C)=C[C@@H]21 | > 3000 nM | > 3000 nM | –
17 | CCCCCc1cc(CNC(N)=O)c2c(c1)OC(C)(C)[C@@H]1CCC(C)=C[C@@H]21 | > 3000 nM | 782 nM | –
18 | CCCCCc1cc(CNS(C)(=O)=O)c2c(c1)OC(C)(C)[C@@H]1CCC(C)=C[C@@H]21 | > 3000 nM | > 3000 nM | –
19 | CCCCCc1cc(CNC(C)=O)c2c(c1)OC(C)(C)[C@@H]1CCC(C)=C[C@@H]21 | > 3000 nM | 1500 nM | –
20 | CCCCCc1cc2c(c(SC)c1)[C@@H]1C=C(C)CC[C@H]1C(C)(C)O2 | 955 nM | 469 nM | 2
21 | CCCCCCC(C)(C)c1cc(NC(C)=O)c2c(c1)OC(C)(C)[C@@H]1CCC(C)=C[C@@H]21 | 1340 nM | 216 nM | 6
22 | CCCCCc1cc2c(c(C(=O)N(C)C)c1)[C@@H]1C=C(C)CC[C@H]1C(C)(C)O2 | > 3000 nM | 1210 nM | –
23 | CCCCCc1cc2c(c([S+](C)[O-])c1)[C@@H]1C=C(C)CC[C@H]1C(C)(C)O2 (single isomer, unassigned; diastereomer B) | > 3000 nM | > 3000 nM | –
24 | CCCCCc1cc(N)c2c(c1)OC(C)(C)[C@@H]1CCC(C)=C[C@@H]21 | 616 nM | 215 nM | 3
25 | CCCCCc1cc2c(c(C(=O)NC)c1)[C@@H]1C=C(C)CC[C@H]1C(C)(C)O2 | > 3000 nM | 1260 nM | –
26 | CCCCCc1cc(C#N)c2c(c1)OC(C)(C)[C@@H]1CCC(C)=C[C@@H]21 | 1720 nM | 387 nM | 3
27 | CCCCCCC(C)(C)c1cc(NC(=O)NC)c2c(c1)OC(C)(C)[C@@H]1CCC(C)=C[C@@H]21 | 333 nM | 257 nM | 1
28 | CCCCCCC(C)(C)c1cc(NS(C)(=O)=O)c2c(c1)OC(C)(C)[C@@H]1CCC(C)=C[C@@H]21 | 1840 nM | 255 nM | 7
29 | CCCCCc1cc(NC(=O)c2ccncc2)c2c(c1)OC(C)(C)[C@@H]1CCC(C)=C[C@@H]21 | > 3000 nM | 1770 nM | –
30 | CCCCCc1cc(NC(N)=O)c2c(c1)OC(C)(C)[C@@H]1CCC(C)=C[C@@H]21 | > 3000 nM | > 3000 nM | –
